A short description of data set [1]: Solubility of tadalafil API in various solvents. Particulars: thermodynamic from solid, 25° C. and 60° C. Type of data set: physicochemical. An excerpt: A suitable amount of tadalafil was weighed and dissolved in various commonly used organic solvents to identify the most appropriate solvents for establishing UV methodology. The solvents utilized for preparing solid dispersions, along with the solubility of tadalafil, the active pharmaceutical ingredient, in different solvents, are presented in Table 4 below.

Data set [2] is described as follows: Polymer and surfactant screening: solubility of solid dispersions in pH 1.0 and pH 6.8 media. In kind it is physicochemical. Particulars: API alone, 2 mg/mL, one value across 5 min and 30 min. The procedure: In this implementation example, a micro-scale rotary evaporation method was employed to screen various types of polymers and surfactants, specifically in the context of the active pharmaceutical ingredient (API) ratio of polymer to surfactant.
Acetone was utilized to prepare a stock solution of the active pharmaceutical ingredient at a concentration of 5 mg/mL, a polymer stock solution at 10 mg/mL, and a surfactant stock solution at 10 mg/mL. These solutions were evenly mixed in two identical portions, then centrifuged and dried to create the solid dispersion.
To each sample tube, 1 mL of pH 1.0 and pH 6.8 media was added, and the samples were vortexed at room temperature to ensure complete dispersion. Samples were collected at 5 minutes and 30 minutes, then centrifuged, diluted, and the absorbance was measured to calculate solubility.

In brackets after ≈: the same amount, converted by molar mass.

As usually defined, the solubility is the concentration that dissolves in the medium under given conditions. For `CN1CC(=O)N2[C@H](c3ccc4c(c3)OCO4)c3[nH]c4ccccc4c3C[C@@H]2C1=O` [Tadalafil], the solubility is 10.2 to 16.9 mg/mL (≈ 26.1 to 43.5 mM) in data set [1] (organic solvent or mixture, Acetone); 16 to 23.9 mg/mL (≈ 41 to 61.5 mM) in data set [1] (organic solvent or mixture, Acetonitrile); less than 10.8 mg/mL in data set [1] (organic solvent or mixture, Anhydrous ethanol); less than 10.8 mg/mL in data set [1] (organic solvent or mixture, Dichloromethane); 23.8 to 47.6 mg/mL (≈ 61.2 to 122 mM) in data set [1] (organic solvent or mixture, Tetrahydrofuran); less than 8.04 mg/mL in data set [1] (pH 6.8 medium, aqueous buffer, pH 6.8). Moreover, the “pH 1.0(Solubility mg/mL)” value in data set [2] (pH 1.0) came to 0.002 mg/mL. For the same compound, in data set [2] (pH 6.8), the “pH 6.8(Solubility mg/mL)” value is 0.027 mg/mL.
